One data set deals with T1, recombinant human SphK2 (Homo sapiens, UniProt Q9NRA0).
T1 construct: purchased Johnson and Johnson
T1 sequence (Q9NRA0 1-654): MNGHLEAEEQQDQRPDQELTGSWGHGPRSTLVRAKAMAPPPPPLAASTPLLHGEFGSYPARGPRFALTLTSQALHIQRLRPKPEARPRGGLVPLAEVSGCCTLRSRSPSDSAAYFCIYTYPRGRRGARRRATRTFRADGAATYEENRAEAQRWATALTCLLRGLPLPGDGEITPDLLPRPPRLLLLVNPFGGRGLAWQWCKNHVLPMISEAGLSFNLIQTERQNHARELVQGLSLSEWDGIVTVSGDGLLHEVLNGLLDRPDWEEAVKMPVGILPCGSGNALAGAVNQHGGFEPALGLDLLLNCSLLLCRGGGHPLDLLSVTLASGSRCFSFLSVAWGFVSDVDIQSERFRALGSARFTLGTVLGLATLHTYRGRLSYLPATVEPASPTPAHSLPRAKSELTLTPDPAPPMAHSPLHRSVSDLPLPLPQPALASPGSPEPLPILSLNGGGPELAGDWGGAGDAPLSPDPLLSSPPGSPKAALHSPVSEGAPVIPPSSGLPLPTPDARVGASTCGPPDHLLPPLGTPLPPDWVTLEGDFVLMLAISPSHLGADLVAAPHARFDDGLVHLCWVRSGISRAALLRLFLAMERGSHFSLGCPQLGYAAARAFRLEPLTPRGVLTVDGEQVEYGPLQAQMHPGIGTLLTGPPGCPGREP
Description: SphK2 activity assay (32P-labelled S1P production). It counts as biochemical. The note with it: 10 μM compound, % of activity compared to control (DMSO vehicle only); for remaining activity at 10 µM: read-out: SphK2% actvity at 10 μm. Here is the method:
(§1) The SphK assays employed, measure SphK activity through the production of ^32P-labelled S1P following the addition of exogenous Sph and [γ^32P] ATP.
(§2) Activities of SphK1 and SphK2 were determined using identical assay conditions with the exception that SphK1 assays used 3 ng/assay recombinant his tagged human SphK1 (made in the lab in a baculovirus system using insect cells), while SphK2 assays used 30 ng/assay recombinant human SphK2 (purchased by Johnson and Johnson).
(§3) Compounds were dissolved in DMSO at 10 mM, the mixture was vortexed (and sonicated if necessary). Stock solutions were kept at 4° C. until used.
(§4) Aliquots were made containing 100 μM drug compound. These aliquots were then diluted in assay buffer: 100 mM tris/HCl pH 7.4, 100 mM NaCl, 1 mM sodium orthovanadate, 10 mM NaF to make up a 10 μM solution.
(§5) Recombinant enzyme was diluted in assay buffer (above) to make up a final concentration of 0.03 ng/μL (SphK1) or 0.33 ng/μL (SphK2).
(§6) 40 μL recombinant enzyme was added to an Eppendorf® Safe-Lock® microcentrifuge tube. This was followed by the addition of drug compound from prepared aliquots, before adding ATP, [γ^32P]ATP and Sph. Note: ATP stock is made up in 1M Tris pH 7.4 and 200 mM MgCl2. This allows ATP to complex with Mg and be available as a substrate.
(§7) The rest of the reaction mixture was then added to the enzyme sample (Table 1). All reactions were performed as triplicates.
(§8) Reaction mixture was prepared with sufficient volume to assay all of the required samples. To do this, each of the volumes shown was multiplied by n+1, where n is the number of samples to be assayed. Assay buffer used is made up of 100 mM tris/HCl pH 7.4, 100 mM NaCl, 1 mM sodium orthovanadate and 10 mM NaF.
(§9) The mixture was then incubated at 37° C. for 20 min (SphK1)/45 min (SphK2).
(§10) To the 100 μL assay mixture, add 270 μl of chloroform/methanol/conc. HCl (100:200:1).
(§11) 20 μL of 5 M KCl was then added to the assay mixture.
(§12) 70 μL of chloroform was added to create phase separation. The solution was vortexed to mix well.
(§13) The solution was then centrifuged for 5 min at 13,000×g to fully separate the phases.
(§14) The upper aqueous/methanol phase was separated by aspiration.
(§15) 50 μL of the remaining lower chloroform phase […] was applied onto the TLC plate by repeatedly spotting a few microliters of liquid (<5 mm diameter circle) between each sample spot with the pipette tip. The liquid was then allowed to absorb into the plate before drying with a stream of air.
(§16) The TLC plate was developed in a glass TLC developing tank with 1-butanol/ethanol/glacial acetic acid/H2O (8:2:1:2) until the mobile phase is within 1 cm of the top of the TLC plate.
(§17) The TLC plate was then exposed to a storage phosphor screen overnight. Storage phosphor screens work by capturing images produced by ionising radiation (e.g. ^32P). The phosphorimager stimulates the screen which uses lasers to convert the latent signal to light. Light is proportional to the amount of radioactivity in the sample. The image is then quantified using standard quantification software (ImageQuant™). Whatman paper with the assay mixture dilutions, was included to assist quantification of the phosphor signal.
(§18) Once the storage phosphor screen was read using the phosphorimager, S1P spots, which have an Rf of 0.7 with the mobile phase employed, were quantified.
(§19) The S1P spot intensity can be converted to the amount of phosphate transferred/min/mg protein.

Data set [1] deals with T2, Dihydroceramide Desaturase-1 (Des1) (Homo sapiens, UniProt O15121).
T2 construct: These modifications included the use of parental Jurkat cells; endogenous in cells; host or cells: parental Jurkat cells
T2 sequence (O15121 1-323): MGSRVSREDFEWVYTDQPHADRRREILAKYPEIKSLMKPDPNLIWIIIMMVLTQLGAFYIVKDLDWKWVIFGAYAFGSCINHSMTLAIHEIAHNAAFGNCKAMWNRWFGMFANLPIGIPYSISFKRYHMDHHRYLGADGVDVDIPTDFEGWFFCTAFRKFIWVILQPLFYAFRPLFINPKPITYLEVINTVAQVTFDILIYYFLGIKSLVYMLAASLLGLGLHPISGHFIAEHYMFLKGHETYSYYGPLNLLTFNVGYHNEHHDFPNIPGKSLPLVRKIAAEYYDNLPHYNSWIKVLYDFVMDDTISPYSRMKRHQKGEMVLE
In words: Dihydroceramide desaturase-1 (Des1) activity by HPLC in intact Jurkat cells labeled with DhCer-C6-NBD. The format is cell-based. The note with it: intact Jurkat cells; for IC50: read-out: Des 1 IC50. As for the experimental part: Measurement of Dihydroceramide Desaturase-1 (Des1) Activity:
These modifications included the use of parental Jurkat cells, 0.5% serum in the culture media, and cell harvesting via centrifugation at 500×g to maximise ceramide extraction. Extracted samples (50 ul) were analysed on a Waters HPLC coupled to a fluorescence detector using a 30 cm C18 reverse-phase column eluted with 1 ml/min 20% H2O and 80% acetonitrile, both with a 0.1% of trifluoroacetic acid.

Data set [2] has as its system PC3 prostate cancer cell lines. In words: Anticancer activity in PC3 cell line, CellTitre AQueous One cell viability assay. It counts as cell-based. The note with it: concentration required to inhibit cell proliferation by 50%, 72 hours. Here is the method:
Measurement of Anticancer Activity in PC3 Cell Line Assays
PC3 prostate cancer cell lines were cultured in DMEM (containing 10% fetal calf serum and penicillin-streptomycin).
Before treatment with drug compounds, cells were plated at 2,500 cells/well in 96 well plates and incubated at 37° C. with 5% CO2 in a humidified incubator for 24 hours prior. Cells were only plated in columns 3-10 and rows C—F to ensure uniform humidity and warmth across all wells. The remaining wells were filled with 100 μL of phosphate buffered saline.
Drug stock solutions (50 or 10 mM) were diluted×1000 in media to a final concentration of either 50 μM or 10 μM with a DMSO vehicle concentration of 0.1%.
Cell culture supernatants were aspirated and replaced with drug containing media. Drug treatments were performed in duplicate wells, while potential plate layout-specific variation in cell growth was accounted for by addition of a vehicle control (0.1% DMSO).
Cells were then incubated with drug compounds at 37° C. with 5% CO2 in a humidified incubator for 72 hours prior to assay.
Media was diluted with CellTitre AQueous One Solution (Promega, Australia; Cat # G3580) according to manufacturer's instructions to produce a final concentration of 317 μg/mL.
Cell culture supernatants were then aspirated from wells and replaced with 100 μL of CellTitre solution. Triplicate cell-free control wells containing only CellTitre solution were also included in each assay.
Cells were then incubated at 37° C. with 5% CO2 in a humidified incubator for 1 hour at which time absorbance was read at 490 nm with an EnVision microplate reader (Perkin Elmer, Australia).
When analysing data, background absorbance (taken from cell-free control wells) was subtracted from each reading. […] For each drug concentration the mean (±SEM) is calculated and graphed using GraphPad Prism (version 5). A sigmoidal curved is fitted to the data and used to calculate the IC50 of each compound.

The target in data set [3] is T3, recombinant his tagged human SphK1 (Homo sapiens, UniProt Q9NYA1).
T3 construct: His tag; made in house; host or cells: insect cells (baculovirus system)
In words: SphK1 activity assay (32P-labelled S1P production). The format is biochemical. The note with it: 10 μM compound; % of activity compared to control (DMSO vehicle only). Here is the method:
as §1, §2, §3, §4, §5, §6, §7, §8, §9, §10, §11, §12, §13, §14, §15, §16, §17, §18, §19

In data set [4] the test system is Neonatal cardiac fibroblasts (NCFs) collagen synthesis. In words: Inhibition of NCF collagen synthesis by 3H-proline incorporation. It counts as cell-based.
Description: Neonatal cardiac fibroblasts (NCFs) were isolated as previously reported (Lekawanvijit, S. Wang, B. H., Krum, H. Eur Heart J. 2010, 31(14), 1771-9). After isolation, NCF (passage 0) were placed into T75 cell culture flasks (BD Falcon, NSW, Australia) and maintained in high-glucose (25 mM) DMEM containing 5.33 mM KCl (Invitrogen, Mount Waverley, Vic, Australia) in the presence of 1% antibiotic/antimycotic (Invitrogen, Mount Waverley, Vic, Australia) and 10% fetal bovine serum (FBS) (JRH biosciences). Cells were incubated at 37° C. with 5% CO2 for overnight and then the media were changed. NCF confluence was checked microscopically and NCF were sub-cultured. After removing media and 3× wash with warm 1×PBS, 2 ml of warm 0.05% trypsin-EDTA was added to each flask. Flasks were placed back into the 37° C. incubator for 1-2 minutes to allow cells to lift off the surface of the flasks. Trypsin was inactivated by adding 8 ml of DMEM containing 10% FBS. NCF (passage 1) were centrifuged for 6 minutes at 1300 rpm at RT. Cell pellets was washed 3× with DMEM+10% FBS and resuspended in DMEM+10% FBS. Cells were then placed into new flasks and incubated at 37° C. with 5% CO2 for 48 hours.
To seed NCF, steps from trypsinization to resuspension were repeated as above. NCF (passage 2) were counted with the ‘Countess’ cell counter. […]
Another data set deals with MCF7 breast cancer cells. In words: Anticancer activity in MCF7 cell lines, MTS assay. The note with it: Homo sapiens, concentration required to inhibit cell proliferation by 50%, 72 hrs, read-out: MCF-7 IC50. The format is cell-based. As for the experimental part:
Measurement of Anticancer Activity in MCF7 Cell Lines
MCF7 breast cancer cells were treated with the test compounds and incubated at 37° C., 5% CO2 in air for 72 hrs. The MTS assay was conducted with addition of prepared MTS solution followed by 2 hr incubation, an OD reading and the raw data recorded. The data was managed in tabular form, values adjusted for vehicle control, and the adjusted values graphed as a sigmoidal curve and the EC50 value calculated.

Data set [5] deals with T4, SphK1a in Flpln-SphK1a cells (Flp-In T-Rex HEK293) (Homo sapiens, UniProt Q9NYA1).
T4 construct: expressed in transfected cells; host or cells: Flp-In T-Rex HEK293 cells, doxycycline-induced
Description: SphK1 proteasomal degradation study (immunoblotting). It counts as cell-based. The note with it: 10 μM test compound, 24 h. Here is the method: These studies were performed as previously described for the drug SKI-II (C. Loveridge et al. J. Biol. Chem. 2010, 285, 38891). […] After 24 h cells were treated with 10 μm test compound, 10 μm MG132, or both. DMSO was used as the vehicle control. After a further 24 h, cells were harvested, lysed, and subjected to SDS-PAGE and immunoblotting with anti-FLAG (Sigma), anti-ERK1/2 (Promega), or anti-a-tubulin (Abcam) antibodies.

T3 sequence (Q9NYA1 whole entry): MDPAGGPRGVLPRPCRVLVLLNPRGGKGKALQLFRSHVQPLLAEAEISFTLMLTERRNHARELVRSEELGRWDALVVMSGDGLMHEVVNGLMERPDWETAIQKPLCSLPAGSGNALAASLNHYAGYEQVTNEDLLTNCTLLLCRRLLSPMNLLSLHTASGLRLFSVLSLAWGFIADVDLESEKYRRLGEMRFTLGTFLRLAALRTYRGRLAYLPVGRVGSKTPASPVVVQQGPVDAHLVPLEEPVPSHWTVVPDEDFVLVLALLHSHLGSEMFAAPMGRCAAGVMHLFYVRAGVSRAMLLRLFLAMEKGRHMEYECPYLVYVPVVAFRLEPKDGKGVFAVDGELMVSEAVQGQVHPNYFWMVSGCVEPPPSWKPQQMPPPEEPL
T4 sequence (Q9NYA1 whole entry): as above

As to `Clc1ccc(-c2nnc(Nc3ccc(-c4nn[nH]n4)cc3)o2)cc1` [Example E-27, 5-(4-Chlorophenyl)-N-[4-(1H-tetrazol-5-yl)phenyl]-1,3,4-oxadiazol-2-amine], the remaining activity at 10 µM on recombinant human SphK2 lay in the range of 50 to 80%. Further, in data set [1], the “Des 1 IC50” value is “inactive”. Further, the IC50 in data set [2] (Homo sapiens, PC-3) fell in the range of 10 to 100 µM. Besides, the activity at 10 µM in data set [3] was 20 to 50%.

As for `O=S1NC(c2ccc(Nc3nnc(-c4ccc(Cl)cc4)o3)cc2)=NO1` (stereo not drawn) [Example E-28, 5-(4-Chlorophenyl)-N-[4-(2-oxido-3H-1,2,3,5-oxathiadiazol-4-yl)phenyl]-1,3,4-oxadiazol-2-amine], the remaining activity at 10 µM on recombinant human SphK2 fell in the range of 5 to 20%. The half-maximal inhibitory concentration (IC50) in data set [1] lay in the range of 1 to 10 µM; in data set [2] (Homo sapiens, PC-3) it was 10 to 100 µM. The activity at 10 µM in data set [3] is less than 1%.

Regarding `Oc1ccc(Nc2nnc(-c3ccccc3)o2)cc1` [Example E-25, 4-((5-Phenyl-1,3,4-oxadiazol-2-yl)amino)phenol], the melting point amounted to 231 °C. Moreover, the 50% inhibitory concentration (IC50) in data set [1] was in the range of 1 to 10 µM.

For “(Z)-4-(5-(4-Chlorophenyl)-1,3,4-oxadiazol-2-yl)-N′-hydroxybenzimidamide [Example E-14]”, the “SphK2% actvity at 10 μm” value on recombinant human SphK2 is 80-100%. Also, in data set [4], the “EC (effective concentration: concentration required to reduce collagen synthesis to a level equal to or below unstimulated control)” value lay within 0.5 to 5 µM. For the same molecule, the half-inhibitory concentration (IC50) in data set [2] was more than 100 µM. Also, the “SphK1% activity at 10 μm” value in data set [3] is listed as 100-150%.

For the molecule `O=C(Nc1ccc(O)cc1)c1nc(-c2ccc(Cl)cc2)cs1` [Example E-5, 4-(4-Chlorophenyl)-N-(4-hydroxyphenyl)thiazole-2-carboxamide], the IC50 in data set [2] (Homo sapiens, PC-3) is 10 to 100 µM; in the data set on MCF7 breast cancer cells, 10 to 100 µM.

Take `O=C(NCc1ccc(-c2nnc(-c3ccc(Cl)cc3)o2)cc1)[C@H]1NCC[C@@H]1O` [Example E-18, (2S,3S)-2-((4-(5-(4-chlorophenyl)-1,3,4-oxadiazol-2-yl)benzyl)carbamoyl)-3-hydroxypyrrolidin-1-ium chloride]: the remaining activity at 10 µM at recombinant human SphK2 lay in the range of 80 to 100%. In data set [2] (Homo sapiens, PC-3), this molecule returned an IC50 of more than 100 µM. For the same molecule, the activity at 10 µM in data set [3] lay within 50 to 80%.

For “3-(4-(5-(4-Chlorophenyl)-1,3,4-oxadiazol-2-yl)phenyl)-1,2,4-oxadiazol-5(4H)-one [Example E-15]”, the “SphK2% actvity at 10 μm” value on recombinant human SphK2 is on record as 80-100%. Also, the concentration for half-maximal inhibition (IC50) in data set [2] was in the range of 0.1 to 1 µM. Moreover, the “% SphK1a degradation at 10 μM” value in data set [5] is given as 50%. Further, the “SphK1% activity at 10 μm” value in data set [3] is recorded as 50-80%.

With “3-(4-((5-(4-Chlorophenyl)-1,3,4-oxadiazol-2-yl)amino)phenyl)-1,2,4-oxadiazol-5(4H)-one [Example E-16]”, the “SphK2% actvity at 10 μm” value at recombinant human SphK2 was 100-150%. The “Des 1 IC50” value in data set [1] is “inactive”. Also, the half-inhibitory concentration (IC50) in data set [2] was 0.1 to 1 µM. For the same molecule, in data set [3], the “SphK1% activity at 10 μm” value is 100-150%.

For the origin of these results see patent US9828351B2, “Enzyme interacting agents” (MONASH UNIVERSITY, priority 2014, dated 2017).
